According to article PMC11207111, “Assessment of the Activity of Nitroisoxazole Derivatives against Trypanosoma cruzi” (Molecules, 2024):

How the values were obtained:
[1] = tested on: epimastigote of T. cruzi Dm28; experiment: Trypanocidal activity (MTT) on epimastigotes; format: cell-based; details: Trypanosoma cruzi; for killing at 100 µM: 24 h, n.a = not active, read-out: % T. cruzi Epimastigote (trypanocidal effect); for IC50: T. cruzi Dm28, 24 h, read-out: IC50 T. cruzi E (epimastigote)
Method: As a preliminary step, a study of nitroisoxazole derivatives on the epimastigote form of T. cruzi was performed. Despite the epimastigote form not being a clinical form present in mammals, its easy handling has allowed screening for the trypanocidal activity of various compounds. It is worth noting that, during the intracellular life cycle of the parasite, a form similar to the epimastigote, which is biochemically and morphologically identical to the form present in the vector, has been described. […] RPMI 1640 medium) for 24 h. […] The effects of the compounds on trypomastigote and Vero cell viability were evaluated by tetrazolium salt reduction assay (MTT). […] The plates were kept overnight at 37 °C (28 °C for epimastigotes), and the optical density (OD) was determined using a 96-well microplate reader (Vantaa, Finland) at 570 nm. Under these conditions, the OD is directly proportional to each well’s viable number of cells. The experiments were performed in triplicate across three different assays.

[2] = tested on: trypomastigote of T. cruzi Dm28; experiment: Trypanocidal activity (MTT) on trypomastigotes; format: cell-based; details: Trypanosoma cruzi; for killing at 100 µM: 24 h, n.a = not active, read-out: % T. cruzi Trypomastigote (trypanocidal effect); for IC50: T. cruzi Dm28, 24 h
Method: As a preliminary step, a study of nitroisoxazole derivatives on the epimastigote form of T. cruzi was performed. Despite the epimastigote form not being a clinical form present in mammals, its easy handling has allowed screening for the trypanocidal activity of various compounds. It is worth noting that, during the intracellular life cycle of the parasite, a form similar to the epimastigote, which is biochemically and morphologically identical to the form present in the vector, has been described. […] This is consistent with studies by Fonseca-Berzal et al. […] Additionally, compounds with higher activity have aromatic rings as substituents for nitroisoxazoles, confirming what was described Do […] [40]. […] It has also been determined that the presence of an isoxazole is essential for activity, as its aromatic structure contains a weak nitrogen-oxygen bond that, under different reaction conditions, can undergo ring cleavage, increasing activity. The results obtained on epimastigotes cannot be conclusive for determining potential Chagas agents, so conducting studies on the infective, extracellular, non-replicative trypomastigote form of T. cruzi present in humans is essential. […] RPMI 1640 medium) for 24 h. […] The effects of the compounds on trypomastigote and Vero cell viability were evaluated by tetrazolium salt reduction assay (MTT). […] The plates were kept overnight at 37 °C (28 °C for epimastigotes), and the optical density (OD) was determined using a 96-well microplate reader (Vantaa, Finland) at 570 nm. Under these conditions, the OD is directly proportional to each well's viable number of cells. The experiments were performed in triplicate across three different assays.

[3] = Cyclic voltammetry (reduction of the nitro group); format: physicochemical; parameters: key to −EpcI / −EpcII / −EpaII / −EpaI: potentials in V vs Ag/AgCl; |ΔEp|: unit not given here
From the text: The chemistry mechanism of reduction in nitroisoxazole derivatives was investigated using cyclic voltammetry.
The peak near −1.32 V corresponds to a quasi-reversible one-electron transfer, according to the criteria of Nicholson–Shain [26] (Table 1), attributable to the species −NO2/NO2.− . The latter species stable anion radical at room temperature. […] An irreversible peak at −0.93 V to the mono-electronic transfer −HNO2/HNO2.− is observed, coupled with a chemical reaction associated with […] of the formed radical. This was evidenced by the addition of NaOH (1 M), which caused a decrease in the Ic peak (Figure 2c).
As previously described, an irreversible signal assigned to hydroxylamine oxidation to a nitroso derivative is also observed for N-acylhydrazones organometallic compounds with a pendant 5-nitrofuryl group. […] Compound 7, which has the least negative reduction potential, can be attributed to introducing a nitro group in the para position of the nitroisoxazole ring. This effect can also be observed in derivatives containing halogens in the same position.
Electrochemical characterization of the new compounds was performed through cyclic voltammetry (CV) on a 693 VA Metrohm instrument (Tokyo, Japan) equipped with a 694 VA Stand converter and 693 VA processor. Potentials were recorded against the Ag/AgCl reference electrode; a hanging drop of mercury (HDME) was used as a working electrode, and platinum was used as an auxiliary electrode. Tetrabutylammonium perchlorate (TBAP, 0.1 M) in DMSO was used as a supporting electrolyte under an N2 atmosphere at room temperature. Using Nicholson´s procedure, the Ipa/Ipc values (RNO2/RNO2^−) were measured from each cyclic voltammogram with a scan rate between 0.1 and 2.5 V/s.

Vero mammalian cells = experiment: Cytotoxicity (MTT) on Vero cells; format: cell-based; details: Chlorocebus sabaeus, 24 h
Method: Additionally, the cytotoxicity of the compounds on VERO mammalian cells was assessed (Table 4). […] It is observed that the majority of the derivatives present considerable cytotoxicity. […] RPMI 1640 medium) for 24 h. […] The effects of the compounds on trypomastigote and Vero cell viability were evaluated by tetrazolium salt reduction assay (MTT). […] The plates were kept overnight at 37 °C (28 °C for epimastigotes), and the optical density (OD) was determined using a 96-well microplate reader (Vantaa, Finland) at 570 nm. Under these conditions, the OD is directly proportional to each well’s viable number of cells. The experiments were performed in triplicate across three different assays.

[4] = ORAC-FL antioxidant capacity; details: relative to Trolox; phosphate buffer 75 mM, pH 7.4, 37 °C
Method: To corroborate the generation of the nitro radical, the antioxidant capacity of the series under study was determined by ORAC-FL methodology, employing a fluorescent probe to capture oxygen-centered radicals (Table 2). The ORAC-FL values of the studied compounds are close to the reference value of Trolox, indicating a low antioxidant capacity. For compounds (1-3), the presence of amino substituents decreases antioxidant activity due to their […] characteristics, preventing the presence of labile hydrogens. […] Compounds 4 and 10 present similar ORAC indexes as aromatic rings with high electron density insert the transfer of labile protons. Antioxidant capacity was determined using the ORAC-fluorescence methodology (ORAC-FL). The analysis used a 96-well white polystyrene plate reader (EnSpire multimode PerkinElmer, Waltham, MA, USA). The reaction was carried out in phosphate buffer (75 mM, pH 7.4). […] A blank with FL and AAPH, using dimethyl sulfoxide instead of the antioxidant solution, was used in each assay. […] The inhibitor capacity was expressed as ORAC-FL values and quantified by integrating the area under the curve (AUCNET). All reaction mixtures were prepared in triplicate, and at least three independent assays were performed for each sample. The area under the fluorescence decay curve (AUC) was calculated by integrating the fluorescence decay where F0 is the initial fluorescence read at 0 min, and F is the fluorescence read at the time. The AUCNET corresponding to the sample was calculated by subtracting the AUC corresponding to the blank. Data were processed using Origin […].5 SR2 (San Francisco, CA, USA). The ORAC-FL indices were calculated according to the following Equation (1): (1) ORAC-[…]]

T. cruzi trypomastigotes = experiment: Generation of ROS (DCFH2-DA fluorescent probe); format: cell-based, Trypanosoma cruzi; details: 100 µM; for ROS generation (DCF fluorescence intensity): 40 min, vs control without compound
Method: To generate radical species on T. cruzi trypomastigotes, intracellular free radicals were determined using the fluorescent probe dichlorofluorescein (DCF).
The cultures were incubated with a 20 µM DCFH2-DA solution for 15 min at 28 °C. Then, they were centrifuged at 3500 rpm and washed 2 times with phosphate buffer saline (PBS) pH 7.4. Cells loaded with DCFH2-DA were transferred to a Nunc® fluorescence 96-well plate (Thermo Fisher Scientific Inc., Waltham, MA, USA), where the nitroisoxazoles derivates were added at 100 µM. Fluorescence (exi: 488 nm, emi: 528 nm) was recorded for 40 min in a BioTek (Winooski, VT, USA) Synergy HT spectrofluorometer. The area under increase curves over time was determined using Oring 8 software, with areas normalized to control. Results are the means ± SD of three independent experiments.

[5] = cyclic voltammetry at 2.0 V/s, DMSO, 0.1 M TBAP, vs Ag/AgCl

Structure (SMILES)	killing at 100 µM [1]	IC50 [1]	killing at 100 µM [2]	IC50 [2]	Ipa/Ipc ([3]; cyclic voltammetry at 2.0 V/s)	|ΔEp| ([3]; cyclic voltammetry at 2.0 V/s)	−EpaII [3, 5]	−EpcII [3, 5]	IC50 (Vero mammalian cells)	melting point	ORAC-FL Index [4]	ROS generation (DCF fluorescence intensity) (T. cruzi trypomastigotes)	ROS generation compared with Nfx (T. cruzi trypomastigotes; Figure 3)	−EpcI [3, 5]	irreversible peak potential, mono-electronic transfer −HNO2/HNO2.− ([3]; cyclic voltammogram, Figure 2b)	−EpaI [3, 5]	IIIc couple potential (formation of a hydroxylamine derivative) ([3]; cyclic voltammogram, Figure 2d)
Cc1noc(/C=C/c2ccc(F)cc2)c1[N+](=O)[O-] [Compound 5, (E)-5-(4-Fluorostyryl)-3-methyl-4-nitroisoxazole]	47 ± 1%	400 ± 3 µM	19 ± 3%	> 400 µM	−0.02	110	0.71	0.82	> 400 µM	169 to 171 °C	0.74 ± 0.05	increase in fluorescence intensity	more reactive oxygen species (ROS) than Nfx	–	–	–	–
Cc1noc(/C=C/c2ccc(O)c(O)c2)c1[N+](=O)[O-] [Compound 8, (E)-4-(2-(3-Methyl-4-nitroisoxazol-5-yl)vinyl)benzene-1,2-diol]	32 ± 5%	> 400 µM	16 ± 2%	> 400 µM	−0.34	150	1.02	1.17	398.1 ± 0.3 µM	270 °C (dec.)	1.0 ± 0.1	did not show ROS generation	–	0.93	−0.93 V	–	–
COc1cc(/C=C/c2onc(C)c2[N+](=O)[O-])ccc1O [Compound 9, (E)-2-Methoxy-4-(2-(3-methyl-4-nitroisoxazol-5-yl)vinyl)phenol]	52 ± 4%	166 ± 4 µM	15 ± 3%	400 ± 2 µM	−0.17	160	1.07	0.91	244.5 ± 0.5 µM	189 to 191 °C	0.7 ± 0.2	did not show ROS generation	–	0.66	–	0.82	−1.14 V
CCN(CC)c1ccc2cc(/C=C/c3onc(C)c3[N+](=O)[O-])c(=O)oc2c1 [Compound 11, (E)-7-(Diethylamino)-3-(2-(3-methyl-4-nitroisoxazol-5-yl)vinyl)-2H-chromen-2-one]	–	> 400 µM	10 ± 4%	400 ± 5 µM	–	–	–	1.21	125.9 ± 0.1 µM	224 to 226 °C	0.21 ± 0.01	increase in fluorescence intensity	–	0.79	–	–	–
Cc1noc(/C=C/c2cn(-c3ccccc3)c3ccccc23)c1[N+](=O)[O-] [Compound 12, (E)-3-Methyl-4-nitro-5-(2-(1-phenyl-1H-indol-3-yl)vinyl)isoxazole]	5 ± 2%	> 400 µM	16 ± 2%	> 400 µM	−0.36	90	0.87	0.96	141 ± 6 µM	196 to 199 °C	0.4 ± 0.1	did not show ROS generation	–	–	–	–	–
Cc1noc(/C=C/c2cn(-c3ccc(Cl)cc3)c3ccccc23)c1[N+](=O)[O-] [Compound 13, (E)-5-(2-(1-(4-Chlorophenyl)-1H-indol-3-yl)vinyl)-3-methyl-4-nitroisoxazole]	–	> 400 µM	14 ± 3%	> 400 µM	−0.41	90	0.90	0.99	102 ± 6 µM	217 to 220 °C	0.4 ± 0.1	did not show ROS generation	–	0.75	–	–	–
Cc1noc(/C=C/c2cccc(Br)c2)c1[N+](=O)[O-] [Compound 16, (E)-5-(3-Bromostyryl)-3-methyl-4-nitroisoxazole]	19 ± 3%	> 400 µM	22 ± 6%	> 400 µM	–	–	–	1.41	141 ± 4 µM	174 to 177 °C	0.54 ± 0.07	did not show ROS generation	–	0.78	–	–	–
Cc1noc(/C=C/c2ccc(Br)cc2)c1[N+](=O)[O-] [Compound 17, (E)-5-(4-Bromostyryl)-3-methyl-4-nitroisoxazole]	27 ± 1%	> 400 µM	15 ± 5%	> 400 µM	–	–	–	1.53	> 400 µM	195 to 198 °C	0.4 ± 0.2	did not show ROS generation	–	0.81	–	–	–
